Active and inactive are the calls of the source. The rule behind the calls is not given here.
Tests used:
[1] = Inhibition of FLT3 D835Y (unknown origin); parameters: species or system Homo sapiens
[2] = tested on: MV4-11; experiment: In vivo antitumor activity against human MV4-11 cells xenografted in mouse assessed as tumor weight at 50 mg/kg, po relative to control; format: functional, organism-based
[3] = target: T1, Casein kinase II subunit alpha (Homo sapiens, UniProt P68400); experiment: Inhibition of CK2alpha1 (unknown origin) at 0.1 uM
Target sequence in this assay (P68400 whole entry, looked up): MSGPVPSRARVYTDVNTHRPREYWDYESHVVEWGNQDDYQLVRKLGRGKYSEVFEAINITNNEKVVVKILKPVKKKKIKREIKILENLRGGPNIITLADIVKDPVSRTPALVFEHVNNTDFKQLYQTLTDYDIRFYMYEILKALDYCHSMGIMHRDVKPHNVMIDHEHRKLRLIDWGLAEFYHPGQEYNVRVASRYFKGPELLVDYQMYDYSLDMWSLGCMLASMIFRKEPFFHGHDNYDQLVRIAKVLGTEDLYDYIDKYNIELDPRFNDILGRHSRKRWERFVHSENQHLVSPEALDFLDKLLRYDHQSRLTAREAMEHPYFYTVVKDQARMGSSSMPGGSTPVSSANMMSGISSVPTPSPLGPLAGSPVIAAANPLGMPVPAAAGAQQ

[4] = Antiproliferative activity against human A375P cells assessed as growth inhibition measured after 72 hrs by CellTiter-Glo assay; format: functional; conditions: Homo sapiens, A375P
[5] = tested on: T2, Receptor-type tyrosine-protein kinase FLT3 (Homo sapiens), P36888 [D835Y]; experiment: Inhibition of FLT3-D835Y mutant (unknown origin) expressed in mouse BaF3 cells assessed as decrease in ERK phosphorylation at 1 nM by Western blot analysis; format: cell-based
T2 sequence (whole entry): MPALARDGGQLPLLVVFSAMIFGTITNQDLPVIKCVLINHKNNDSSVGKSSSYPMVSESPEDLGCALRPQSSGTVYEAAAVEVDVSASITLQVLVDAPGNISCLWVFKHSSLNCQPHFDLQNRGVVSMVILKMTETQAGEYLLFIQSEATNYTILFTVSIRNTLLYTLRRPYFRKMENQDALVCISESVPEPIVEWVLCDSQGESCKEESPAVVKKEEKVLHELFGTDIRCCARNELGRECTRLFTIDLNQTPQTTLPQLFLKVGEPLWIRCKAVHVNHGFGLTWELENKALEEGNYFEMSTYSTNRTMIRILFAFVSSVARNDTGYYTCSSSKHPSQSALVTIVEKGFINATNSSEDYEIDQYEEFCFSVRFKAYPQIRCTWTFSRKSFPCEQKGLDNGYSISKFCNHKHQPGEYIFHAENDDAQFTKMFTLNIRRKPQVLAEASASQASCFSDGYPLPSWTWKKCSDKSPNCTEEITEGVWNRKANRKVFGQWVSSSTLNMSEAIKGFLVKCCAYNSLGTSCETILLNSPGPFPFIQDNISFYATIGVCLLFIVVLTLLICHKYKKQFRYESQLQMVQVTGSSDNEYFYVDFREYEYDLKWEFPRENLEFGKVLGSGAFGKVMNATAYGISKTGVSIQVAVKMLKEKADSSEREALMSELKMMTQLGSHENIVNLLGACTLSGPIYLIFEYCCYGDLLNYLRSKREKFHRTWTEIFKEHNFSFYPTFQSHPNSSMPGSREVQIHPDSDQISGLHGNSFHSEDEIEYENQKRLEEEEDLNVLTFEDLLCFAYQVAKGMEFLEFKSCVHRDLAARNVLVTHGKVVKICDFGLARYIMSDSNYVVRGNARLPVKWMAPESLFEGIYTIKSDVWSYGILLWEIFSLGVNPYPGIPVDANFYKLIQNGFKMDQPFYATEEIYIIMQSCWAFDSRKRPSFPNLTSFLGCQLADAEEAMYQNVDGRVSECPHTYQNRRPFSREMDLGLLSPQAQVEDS

[6] = tested on: Melanoma cell line; experiment: Antiproliferative activity against human skin cancer cells assessed as growth inhibition measured after 72 hrs by MTT assay; format: functional, cell-based
[7] = target: T3, Focal adhesion kinase 1 (Homo sapiens, UniProt Q05397); experiment: Inhibition of FAK in human HCT-116 cells assessed as inhibition of paxillin phosphorylation at 0.5 to 5 uM incubated for 24 hrs by Western blot analysis; format: cell-based; conditions: dose 0.5-5 µM
T3 sequence (Q05397 2-1052 limits assumed): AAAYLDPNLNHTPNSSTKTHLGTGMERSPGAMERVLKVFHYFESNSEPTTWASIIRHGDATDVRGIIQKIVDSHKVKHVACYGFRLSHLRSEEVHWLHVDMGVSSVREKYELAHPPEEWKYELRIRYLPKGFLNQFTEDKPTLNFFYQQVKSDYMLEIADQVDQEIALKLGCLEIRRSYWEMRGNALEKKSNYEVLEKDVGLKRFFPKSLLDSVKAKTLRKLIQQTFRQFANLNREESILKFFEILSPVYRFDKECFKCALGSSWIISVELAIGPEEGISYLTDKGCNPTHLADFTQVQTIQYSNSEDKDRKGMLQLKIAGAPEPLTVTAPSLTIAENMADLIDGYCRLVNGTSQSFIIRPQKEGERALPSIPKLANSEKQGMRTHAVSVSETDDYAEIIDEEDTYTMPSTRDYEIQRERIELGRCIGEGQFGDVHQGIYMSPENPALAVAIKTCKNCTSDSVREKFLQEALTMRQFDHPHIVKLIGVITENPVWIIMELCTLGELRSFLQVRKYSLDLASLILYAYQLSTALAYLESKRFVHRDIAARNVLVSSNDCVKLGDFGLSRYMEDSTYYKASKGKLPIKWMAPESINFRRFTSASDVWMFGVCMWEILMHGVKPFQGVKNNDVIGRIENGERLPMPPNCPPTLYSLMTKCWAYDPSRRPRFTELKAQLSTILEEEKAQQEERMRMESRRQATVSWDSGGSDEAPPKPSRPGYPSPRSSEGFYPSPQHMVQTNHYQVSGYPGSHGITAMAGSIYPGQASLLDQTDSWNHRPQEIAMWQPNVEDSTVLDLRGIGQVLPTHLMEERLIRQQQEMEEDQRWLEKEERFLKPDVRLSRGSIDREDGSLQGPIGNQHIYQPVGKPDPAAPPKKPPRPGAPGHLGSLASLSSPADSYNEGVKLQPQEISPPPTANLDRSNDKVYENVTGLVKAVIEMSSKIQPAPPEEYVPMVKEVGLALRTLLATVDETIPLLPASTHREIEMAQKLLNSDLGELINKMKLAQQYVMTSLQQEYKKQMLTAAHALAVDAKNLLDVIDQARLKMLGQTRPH

[8] = tested on: MDA-MB-231; experiment: Antimetastatic activity against human MDA-MB-231 cells expressing firefly luciferase xenografted NSG orthotopic mouse model assessed as reduction in luminescence intensity at axillary lymph node at 70 mg/kg, po once daily measured for 2 weeks; format: functional, organism-based
[9] = tested on: Colon carcinoma cell; experiment: Antiproliferative activity against human colon cancer cells assessed as growth inhibition measured after 72 hrs by MTT assay; format: functional, cell-based
[10] = tested on: MV4-11; experiment: In vivo antitumor activity against human MV4-11 cells xenografted in mouse assessed as tumor growth inhibition at 50 mg/kg, po; format: functional; conditions: MV4-11, po
[11] = target: Cyclin-dependent kinase 4 (Homo sapiens, UniProt P11802); experiment: Inhibition of CDK4 (unknown origin) at 0.1 uM
Cyclin-dependent kinase 4, sequence (P11802 whole entry): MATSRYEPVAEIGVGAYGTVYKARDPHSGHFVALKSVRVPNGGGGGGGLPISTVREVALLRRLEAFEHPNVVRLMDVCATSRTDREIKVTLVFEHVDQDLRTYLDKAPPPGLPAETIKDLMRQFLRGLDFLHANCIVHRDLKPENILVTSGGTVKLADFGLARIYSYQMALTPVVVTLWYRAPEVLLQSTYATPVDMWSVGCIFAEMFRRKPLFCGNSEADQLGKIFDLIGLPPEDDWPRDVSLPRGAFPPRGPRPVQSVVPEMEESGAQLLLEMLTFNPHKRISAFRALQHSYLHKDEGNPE

[12] = target: Tyrosine-protein kinase JAK1 (Homo sapiens, UniProt P23458); experiment: Inhibition of JAK1 (unknown origin) at 0.1 uM
[13] = Toxicity in mouse xenografted with human MV4-11 cells assessed as change in body weight at 20 to 50 mg/kg, po; format: organism-based; conditions: in vivo, dose 20-50 mg/kg
[14] = tested on: BaF3; experiment: Inhibition of FLT3-ITD/[…] mutant (unknown origin) expressed in mouse BaF3 cells assessed as decrease in autophosphorylation at 1 nM by Western blot analysis; format: cell-based; conditions: Homo sapiens
[15] = tested on: MDA-MB-231; experiment: Induction of apoptosis in human MDA-MB-231 cells assessed apoptotic cell death at 10 uM incubated for 24 hrs by Annexin-V/PI analysis; format: functional, cell-based
[16] = target: T4, Proto-oncogene tyrosine-protein kinase ROS (Homo sapiens, UniProt P08922); experiment: Inhibition of ROS (unknown origin) at 0.1 uM
T4 sequence (P08922 whole entry): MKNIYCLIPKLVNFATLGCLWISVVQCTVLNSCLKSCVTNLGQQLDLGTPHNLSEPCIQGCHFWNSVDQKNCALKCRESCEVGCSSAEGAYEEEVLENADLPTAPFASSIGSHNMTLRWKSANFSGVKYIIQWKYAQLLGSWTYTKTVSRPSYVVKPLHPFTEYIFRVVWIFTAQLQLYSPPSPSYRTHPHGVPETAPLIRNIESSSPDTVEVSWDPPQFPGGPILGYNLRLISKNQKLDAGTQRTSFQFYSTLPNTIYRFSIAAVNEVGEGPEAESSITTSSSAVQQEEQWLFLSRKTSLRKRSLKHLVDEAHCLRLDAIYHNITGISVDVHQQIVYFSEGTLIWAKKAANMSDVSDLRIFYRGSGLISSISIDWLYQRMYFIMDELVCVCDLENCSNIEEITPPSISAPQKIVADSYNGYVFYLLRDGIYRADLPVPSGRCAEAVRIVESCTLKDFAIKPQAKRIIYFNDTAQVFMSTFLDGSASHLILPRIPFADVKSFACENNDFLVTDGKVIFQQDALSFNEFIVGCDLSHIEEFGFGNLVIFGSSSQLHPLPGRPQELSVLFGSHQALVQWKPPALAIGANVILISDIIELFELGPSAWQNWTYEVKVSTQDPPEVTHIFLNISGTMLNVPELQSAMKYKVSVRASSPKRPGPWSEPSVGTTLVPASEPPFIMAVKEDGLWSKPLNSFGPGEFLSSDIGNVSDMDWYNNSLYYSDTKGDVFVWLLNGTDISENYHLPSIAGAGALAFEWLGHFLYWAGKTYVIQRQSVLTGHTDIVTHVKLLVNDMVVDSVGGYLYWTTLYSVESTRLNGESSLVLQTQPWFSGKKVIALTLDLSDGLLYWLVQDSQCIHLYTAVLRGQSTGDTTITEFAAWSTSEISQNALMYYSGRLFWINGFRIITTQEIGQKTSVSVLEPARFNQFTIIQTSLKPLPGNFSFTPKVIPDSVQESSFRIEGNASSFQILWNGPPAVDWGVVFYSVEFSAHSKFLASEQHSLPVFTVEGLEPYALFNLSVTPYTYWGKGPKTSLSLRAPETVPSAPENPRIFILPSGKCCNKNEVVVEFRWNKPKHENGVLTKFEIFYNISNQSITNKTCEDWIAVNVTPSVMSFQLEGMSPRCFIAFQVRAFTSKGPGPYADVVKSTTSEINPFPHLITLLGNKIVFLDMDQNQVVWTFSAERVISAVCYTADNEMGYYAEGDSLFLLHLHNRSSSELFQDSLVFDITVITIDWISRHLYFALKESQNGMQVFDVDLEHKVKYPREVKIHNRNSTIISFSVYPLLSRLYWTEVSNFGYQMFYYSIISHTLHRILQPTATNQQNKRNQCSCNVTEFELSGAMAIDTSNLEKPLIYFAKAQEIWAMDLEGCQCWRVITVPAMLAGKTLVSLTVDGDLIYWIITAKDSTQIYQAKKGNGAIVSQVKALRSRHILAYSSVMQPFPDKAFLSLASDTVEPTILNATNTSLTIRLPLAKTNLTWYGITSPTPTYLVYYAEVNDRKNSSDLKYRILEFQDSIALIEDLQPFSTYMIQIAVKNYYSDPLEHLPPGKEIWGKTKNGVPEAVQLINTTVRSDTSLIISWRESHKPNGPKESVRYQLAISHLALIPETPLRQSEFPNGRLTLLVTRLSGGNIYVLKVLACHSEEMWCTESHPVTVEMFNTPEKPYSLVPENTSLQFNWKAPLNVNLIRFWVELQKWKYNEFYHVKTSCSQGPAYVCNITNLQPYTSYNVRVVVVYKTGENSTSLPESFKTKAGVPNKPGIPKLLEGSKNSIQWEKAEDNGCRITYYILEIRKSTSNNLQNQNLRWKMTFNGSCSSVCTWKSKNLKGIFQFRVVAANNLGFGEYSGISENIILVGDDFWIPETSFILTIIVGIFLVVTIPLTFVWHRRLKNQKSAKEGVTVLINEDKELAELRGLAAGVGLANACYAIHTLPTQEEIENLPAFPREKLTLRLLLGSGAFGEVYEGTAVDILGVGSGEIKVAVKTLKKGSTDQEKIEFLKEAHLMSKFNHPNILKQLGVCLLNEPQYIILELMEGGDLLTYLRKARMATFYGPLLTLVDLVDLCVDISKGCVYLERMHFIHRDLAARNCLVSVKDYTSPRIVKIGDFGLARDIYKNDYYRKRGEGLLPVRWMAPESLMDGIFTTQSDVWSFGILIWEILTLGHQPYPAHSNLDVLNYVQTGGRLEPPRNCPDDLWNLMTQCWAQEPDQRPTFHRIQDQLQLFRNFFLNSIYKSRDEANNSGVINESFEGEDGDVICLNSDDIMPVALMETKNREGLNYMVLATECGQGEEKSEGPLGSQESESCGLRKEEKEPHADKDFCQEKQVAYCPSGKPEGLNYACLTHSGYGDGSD

[17] = target: Proto-oncogene tyrosine-protein kinase receptor Ret (Homo sapiens, UniProt P07949); experiment: Inhibition of RET (unknown origin)
[18] = target: T5, Mitogen-activated protein kinase; ERK1/ERK2 (Homo sapiens) (UniProt P27361+P28482); experiment: Inhibition of ERK1/2 autophosphorylation in human MDA-MB-231 cells at 0.5 to 5 uM incubated for 24 hrs by Western blot analysis; format: cell-based; conditions: dose 0.5-5 µM
T5 sequence (P27361 whole entry, looked up): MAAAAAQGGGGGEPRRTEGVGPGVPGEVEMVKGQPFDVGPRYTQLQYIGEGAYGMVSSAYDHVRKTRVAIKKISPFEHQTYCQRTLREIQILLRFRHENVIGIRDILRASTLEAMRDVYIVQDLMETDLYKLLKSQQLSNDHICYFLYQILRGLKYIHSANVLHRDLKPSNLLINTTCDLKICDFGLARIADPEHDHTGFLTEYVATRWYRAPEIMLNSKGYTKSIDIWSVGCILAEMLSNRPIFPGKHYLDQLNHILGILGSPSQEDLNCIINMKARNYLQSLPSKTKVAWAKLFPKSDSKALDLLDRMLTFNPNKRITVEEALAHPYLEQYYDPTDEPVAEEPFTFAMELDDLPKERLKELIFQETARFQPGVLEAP
T5 sequence (P28482 whole entry, looked up): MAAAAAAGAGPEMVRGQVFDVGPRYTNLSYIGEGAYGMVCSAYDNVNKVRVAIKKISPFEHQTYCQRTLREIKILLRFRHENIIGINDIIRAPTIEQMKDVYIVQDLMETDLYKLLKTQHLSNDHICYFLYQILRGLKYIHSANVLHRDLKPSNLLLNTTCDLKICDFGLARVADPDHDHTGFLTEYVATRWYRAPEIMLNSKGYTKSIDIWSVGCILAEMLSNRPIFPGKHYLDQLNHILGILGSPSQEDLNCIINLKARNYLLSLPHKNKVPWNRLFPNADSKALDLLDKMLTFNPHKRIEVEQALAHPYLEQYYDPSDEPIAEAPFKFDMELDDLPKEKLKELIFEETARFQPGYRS

[19] = tested on: HCT-116; experiment: Antiproliferative activity against human HCT-116 cells assessed as growth inhibition measured after 72 hrs by CellTiter-Glo assay; format: functional; conditions: Homo sapiens, HCT-116
[20] = target: T3, Focal adhesion kinase 1; experiment: Inhibition of FAK autophosphorylation at Y397 in human MDA-MB-231 cells at 5 uM incubated for 24 hrs by Western blot analysis; format: cell-based
[21] = target: T1, Casein kinase II subunit alpha; experiment: Inhibition of CK2alpha1 (unknown origin)
Target sequence in this assay (P68400 whole entry): as the sequence (P68400 whole entry, looked up) above

[22] = target: Ephrin type-B receptor 1 (Homo sapiens, UniProt P54762); experiment: Inhibition of EphB1 (unknown origin)
[23] = target: Tyrosine-protein kinase Lck (Homo sapiens, UniProt P06239); experiment: Inhibition of Lck (unknown origin) at 0.1 uM
[24] = tested on: HCT-116; experiment: Growth inhibition of anchorage-Independent human HCT-116 cells assessed as decrease in number of colonies at 1 uM incubated for 72 hrs by MTT assay relative to control; format: functional, cell-based
[25] = target: T3, Focal adhesion kinase 1; experiment: Inhibition of FAK autophosphorylation at Y397 in human HCT-116 cells at 5 uM incubated for 24 hrs by Western blot analysis; format: cell-based
[26] = target: T4, Proto-oncogene tyrosine-protein kinase ROS; experiment: Inhibition of ROS (unknown origin)
[27] = Antimigratory activity in human HCT-116 cells assessed as suppression of migration at 1 uM measured after 12 hrs by scratch wound healing assay; format: functional
[28] = target: Ephrin type-B receptor 1 (Homo sapiens) (UniProt P54762); experiment: Inhibition of EphB1 (unknown origin) at 0.1 uM
[29] = target: T5, Mitogen-activated protein kinase; ERK1/ERK2 (Homo sapiens); experiment: Inhibition of ERK1/2 autophosphorylation in human HCT-116 cells at 0.5 to 5 uM incubated for 24 hrs by Western blot analysis; format: cell-based; conditions: dose 0.5-5 µM
[30] = Oral bioavailability in rat at 5 mg/kg; format: ADME, organism-based; conditions: in vivo

SMILES: CCN1CCN(c2ccc(Nc3ncc4scc(-c5cccc(NS(C)(=O)=O)c5)c4n3)cc2)CC1
- IC50 [1]: < 0.5 nM
- Activity [2]: Active
- inhibition [3]: 95.5%
- GI50 [4]: 370 nM
- inhibition [5]: Active
- Activity [6]: Active
- inhibition [7]: Active
- Activity [8]: Active
- Activity [9]: Active
- inhibition in vivo at 50 mg/kg [10]: 96%
- inhibition [11]: 92.7%
- inhibition [12]: 93.8%
- Activity [13]: Non-Toxic
- inhibition [14]: Active
- Activity [15]: Active
- inhibition [16]: 92.9%
- IC50 [17]: 2.9 nM
- inhibition [18]: inactive
- GI50 [19]: 160 nM
- inhibition [20]: Active
- IC50 [21]: 13.9 nM
- IC50 [22]: 29.8 nM
- inhibition [23]: 93.9%
- growth inhibition (GI) [24]: Active
- inhibition [25]: Active
- IC50 [26]: 22 nM
- inhibition at 1 µM [27]: 50%
- inhibition [28]: 91.1%
- inhibition [29]: inactive
- bioavailability [30]: 37.1%
